These results are taken from paper PMC9947563, “Identification of the molecular determinants of antagonist potency in the allosteric binding pocket of human P2X4” (Frontiers in Pharmacology, 2023).

Bounds are passed on as bounds.

The target in assay [1] is T1, rat P2X4 wild type (r4-WT) (Rattus norvegicus, UniProt P51577).
T1 construct: expressed in transfected cells; host or cells: 1321N1 astrocytoma cells, stably transfected
T1 sequence (P51577 1-388): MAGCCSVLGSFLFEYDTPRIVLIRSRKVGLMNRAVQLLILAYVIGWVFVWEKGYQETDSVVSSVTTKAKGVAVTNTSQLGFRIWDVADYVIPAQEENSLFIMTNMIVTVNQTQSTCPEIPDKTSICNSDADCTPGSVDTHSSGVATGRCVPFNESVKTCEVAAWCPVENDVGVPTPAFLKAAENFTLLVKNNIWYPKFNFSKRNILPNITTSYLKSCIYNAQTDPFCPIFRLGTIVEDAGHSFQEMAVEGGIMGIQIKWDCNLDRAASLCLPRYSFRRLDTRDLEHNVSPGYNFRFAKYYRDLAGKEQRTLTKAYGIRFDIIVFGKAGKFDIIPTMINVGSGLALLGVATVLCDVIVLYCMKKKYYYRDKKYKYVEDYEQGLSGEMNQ
Briefly: ATP-induced calcium influx (Fluo-4) in 1321N1 cells stably expressing rat P2X4 wild type. In kind it is cell-based. On the procedure:
1321N1 astrocytoma cells were cultured (at 37°C, 5% CO2) in Dulbecco’s modified Eagle’s medium (DMEM/F-12 with Glutamax) supplemented with 10% foetal bovine serum (FBS) and 200 unit/mL of penicillin and streptomycin antibiotics (Fisher Scientific). Stably transfected clones were grown in DMEM/F-12 with Glutamax medium supplemented with G-418 (Geneticin®, Fisher Scientific), 600 μg/mL and 150 μg/mL during selection and maintenance, respectively. FuGene HD Transfection Reagent (Promega) was used according to the manufacturer’s protocol for the generation of stable cell line expressing h4-WT, r4-WT, h4-I312T, and r4-T312I. Each cell line was then tested for P2X4 receptor expression by Western blot and for functionality using the Ca^2+ influx assay.
(§1) Cells were plated the day before assay into poly-lysine-coated 96-well plates at 40–55,000 cells/mL. To load cells with calcium-sensitive fluorescent dye, culture medium was replaced with modified Ringer’s buffer (140 mM NaCl, 10 mM HEPES, 10 mM Glucose, 1 mM MgCl2, 1 mM CaCl2, 2.5 mM KCl, 0.5% BSA, pH = 7.4) containing 2.6 μM FLUO4-AM (Fisher Scientific) and 250 μM probenecid (Sigma), and cells were incubated for 20–30 min. Prior to assay, buffer was replaced with fresh modified Ringer’s buffer containing probenecid but not the dye. […] A Fluoroskan Ascent FL plate reader (Fisher Scientific) equipped with a solution dispenser and an appropriate filter pair (excitation: 485 nm, emission: 538 nm) was used to record 5-s baseline followed by P2X4-mediated calcium influx measurements for 20–25 s after ATP stimulation (final concentration ranging between 0.03 and 100 μM in buffered solution, pH = 7.4). The collected responses were normalized to the first data-point recorded after ATP injection.
Data processing and data analysis were carried out using Graphpad Prism version 6 for Mac. Figures are presented as Mean ± SEM. Statistical significance of any difference observed between samples was calculated through one-way ANOVA followed by Dunnett’s multiple comparisons test with a single pooled variance (control, unless otherwise specified) or, when comparing only two sets of data, using an unpaired t-test with Welch’s correction. When comparing data obtained from multiple independent experiments (N), each dataset was normalized to the mean value obtained for the vehicle control.

The target in assay [2] is T2, human P2X4 I312T (h4-I312T) (Homo sapiens, UniProt Q99571, I312T).
T2 construct: expressed in transfected cells; host or cells: 1321N1 astrocytoma cells, stably transfected
T2 sequence (Q99571 1-388 I312T): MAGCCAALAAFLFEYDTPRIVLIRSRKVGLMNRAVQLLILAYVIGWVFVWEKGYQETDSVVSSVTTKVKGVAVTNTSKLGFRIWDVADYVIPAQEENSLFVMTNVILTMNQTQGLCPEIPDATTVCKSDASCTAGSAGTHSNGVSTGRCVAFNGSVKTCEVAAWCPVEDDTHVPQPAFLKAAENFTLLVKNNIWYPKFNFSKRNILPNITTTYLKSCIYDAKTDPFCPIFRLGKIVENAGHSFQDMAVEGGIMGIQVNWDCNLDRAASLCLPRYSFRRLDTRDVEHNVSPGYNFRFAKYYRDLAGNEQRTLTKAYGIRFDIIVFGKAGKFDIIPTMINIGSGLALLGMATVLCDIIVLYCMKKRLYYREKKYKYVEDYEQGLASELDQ
Briefly: ATP-induced calcium influx (Fluo-4) in 1321N1 cells stably expressing human P2X4 I312T. It is filed as cell-based. On the procedure:
Plasmid encoding rat P2X4 (r4-WT) ([Royle et al., 2005]) was a kind gift from Ruth Murrell-Lagnado, whilst that encoding human P2X4 with a C-terminal (His)10 tag has been reported previously ([Young et al., 2008]).
1321N1 astrocytoma cells were cultured (at 37°C, 5% CO2) in Dulbecco’s modified Eagle’s medium (DMEM/F-12 with Glutamax) supplemented with 10% foetal bovine serum (FBS) and 200 unit/mL of penicillin and streptomycin antibiotics (Fisher Scientific). Stably transfected clones were grown in DMEM/F-12 with Glutamax medium supplemented with G-418 (Geneticin®, Fisher Scientific), 600 μg/mL and 150 μg/mL during selection and maintenance, respectively. […] Each cell line was then tested for P2X4 receptor expression by Western blot and for functionality using the Ca^2+ influx assay.
as §1, with “To load cells with calcium-sensitive fluorescent dye, culture medium was replaced with modified Ringer’s buffer (140 mM NaCl, 10 mM HEPES, 10 mM Glucose, 1 mM MgCl2, 1 mM CaCl2, 2.5 mM KCl, 0.5% BSA, pH = 7.4) containing 2.6 μM FLUO4-AM (Fisher Scientific) and 250 μM probenecid (Sigma), and cells were incubated for 20–30 min.” left out
Data processing and data analysis were carried out using Graphpad Prism version 6 for Mac. Figures are presented as Mean ± SEM. […] When comparing data obtained from multiple independent experiments (N), each dataset was normalized to the mean value obtained for the vehicle control.

Assay [3] relates to zebrafish P2X4. On the set-up: method as in Ase et al. (2015). The settings on record: ref Ase et al. (2015); cited from earlier work.
Assay [4] deals with mP2X4. The settings on record: ref Ase et al. (2015); read-out: mP2X4 IC50; cited from earlier work.

As usually defined, the IC50 is the concentration needed to halve the response being measured.

On to `CC(C)c1cc(Br)c(NC(=O)Nc2cccnc2)c(Br)c1` [BX430], for which the IC50 was 66.1 µM in assay [1], 1.89 µM in assay [3] and more than 10 µM in assay [4]. Besides, the “Hill coefficient (BX-430 inhibition curve)” value in assay [1] (rat P2X4 WT, 1 µM ATP) came out at 1.441; in assay [2] (human P2X4 I312T, 1 µM ATP), 2.057. The “decrease in BX-430 potency by I312T mutation in human P2X4” value in assay [2] (human P2X4 I312T vs human P2X4 WT) was more than 48 fold.
